Source: US6376472B1, “Compounds having antihypertensive, cardioprotective, anti-ischemic and antilipolytic properties” (Aventis Pharmaceuticals, Inc., priority 1996, dated 2002)
One block for each compound: values may come before it.

Assays:
A1 and A2 receptors = conditions: selectivity of receptor affinity; cited from earlier work
A2 receptor = conditions: relative to NECA; cited from earlier work
lipolysis = conditions: selective agonists of the A2 receptor subtype; cited from earlier work

- melting point: 166 to 168 °C
SMILES: COC[C@H]1C[C@@H](n2cnc3c(N[C@H]4CCN(c5ccc(C(F)(F)F)cn5)C4)ncnc32)[C@@H](O)[C@H]1O

SMILES: OC[C@H]1O[C@@H](n2cnc3c(NC4CCCC4)ncnc32)[C@H](O)[C@@H]1O [CPA, Cyclopentyladenosine]
- A2/A1 ratio (A1 and A2 receptors): 780

SMILES: Nc1nc(Nc2ccccc2)nc2c1ncn2[C@@H]1O[C@H](CO)[C@@H](O)[C@H]1O [CV-1808]
- fold less potent than NECA in affinity for the A2 receptor (A2 receptor): 10 fold
- A2/A1 ratio (A1 and A2 receptors): 0.19

SMILES: CCNC(=O)[C@H]1O[C@@H](n2cnc3c(N)nc(NCCc4ccc(CCC(=O)O)cc4)nc32)[C@H](O)[C@@H]1O [CGS 21680]
- antilipolytic activity (lipolysis): do not exhibit antilipolytic activity
